“Also recorded” adds a separate entry of the source.
How the values were obtained:
[1] = tested on: human dermal fibroblast (HDF) cells; assay: HA in human dermal fibroblasts, daily vs pulsed treatment (Example 17); type: cell-based; conditions: 12 days; pulsed uses half as much active
Method: A series of experiments was conducted to assess the effects of different treatment regimens of active ingredients shown in Table 9 on the production of hyaluronic acid (HA) in human dermal fibroblast (HDF) cells. Two different treatment regimens were assessed: (1) active ingredient A applied to cells for 12 consecutive days; and (2) active ingredient applied to cells for 2 consecutive days followed by application of media not containing active ingredient for two consecutive days repeatedly until treatment is applied for 12 consecutive days. […] After reaching about 75% confluence, cells were transferred into DMEM media without FBS, and incubated for 4-6 hours. Different wells were assigned to one of treatment regimens (1)-(2) as described above, with six wells allocated to each treatment regimen. All active ingredients were prepared as emulsions and applied directly to the HDF cells. The specific active ingredients used in each of the two treatment regimens are provided below in Table 10. Following treatment, cells were collected and the amount of hyaluronic acid (HA) secreted from the cells was measured using a commercially available HA assay (available from […] Inc., CO).

[2] = tested on: Human dermal fibroblast cells; assay: Pro-collagen I secreted by human dermal fibroblasts, HTRF human pro-collagen I kit (Example 1); type: cell-based; conditions: 0.0001% phytol alone or 1 μM retinol alone for 16 days; decline after day 13 despite continuing treatment
Method: Human dermal fibroblast cells were grown in a 6-well plate in DMEM media (available from CORNING, N.Y.) supplemented with 10% Fetal Bovine Serum (FBS) and L-glutamine (1.5×10^5 cells/plate) overnight. After reaching about 75% confluence, cells were transferred into DMEM media without FBS and incubated for 4-6 hours. Next, the cells were treated with either 0.0001% phytol or 1 μM retinol. Treatment with either phytol alone, or retinol alone was performed in DMEM media without FBS for 16 days. For sequential treatments, the cells were treated with 0.0001% phytol for 6 days followed by 1 μM retinol for 10 days, or with 1 μM retinol for 6 days, followed by 0.0001% phytol for 10 days. Every other day, media were collected and cells were re-treated with phytol or retinol in the same fashion. After treatment, the amount of collagen secreted into the culture media was determined using the HTRF human pro-collagen I kit (available from CISBIO, Inc).

Row | SMILES | production of hyaluronic acid, pulsed treatment compared with daily treatment [1] | pro-collagen I production as a function of treatment time [2]
1 | O=C(O)CO [Glycolic Acid] | only slightly less effective | –
2 | CC1=C(/C=C/C(C)=C/C=C/C(C)=C/CO)C(C)(C)CCC1 [Retinol, reference compound] | significantly more production of hyaluronic acid | declines; also recorded: plateau in effectiveness over time
3 | C/C(=C\CO)CCC[C@H](C)CCC[C@H](C)CCCC(C)C [Phytol] | significantly more production of hyaluronic acid | declines; also recorded: plateau in effectiveness over time
